Values quoted from earlier work in patent US12599131B2, “Disinfectant composition” (KAO CORPORATION, priority 2020, dated 2026).

Details: 0.1 mol/L in water, Handbook of Chemistry or Chemicalize

SMILES | pKa (25° C.)
CCCCCCCCC(CCCCCC)C(=O)O (stereo not drawn) [2-hexyldecanoic acid] | 5.12
CCCCCCCCC(CCCCCCCC)C(=O)O [2-octyldecanoic acid] | 4.98
O=C(O)CCCCC(=O)O [adipic acid] | 4.3
CCCCCCCCCC(=O)O [capric acid] | 4.95
CCCCCC(=O)O [caproic acid] | 4.6
O=CO [formic acid] | 3.54
